In patent US6867218B2, “Compounds, their preparation and use” (Novo Nordisk A/S, priority 2000, dated 2005):

Columns and labels:
[1] = target: T1, human PPAR α (Homo sapiens, UniProt Q07869); experiment: In vitro PPAR alpha transactivation assay (GAL4-DBD/PPAR-LBD, luciferase reporter, HEK293); format: cell-based; conditions: for In vitro activation PPAR α % max: fold activation relative to maximum activation obtained with Wy14643 (approx. 20 fold corresponded to 100%); for EC50: transfected HEK293 cells, 24 h compound, five concentrations 0.01 to 30 μM, at least three experiments, means, read-out: In vitro activation PPAR α EC50
T1 construct: expressed in transfected cells; host or cells: HEK293
T1 sequence (Q07869 167-468 limits assumed): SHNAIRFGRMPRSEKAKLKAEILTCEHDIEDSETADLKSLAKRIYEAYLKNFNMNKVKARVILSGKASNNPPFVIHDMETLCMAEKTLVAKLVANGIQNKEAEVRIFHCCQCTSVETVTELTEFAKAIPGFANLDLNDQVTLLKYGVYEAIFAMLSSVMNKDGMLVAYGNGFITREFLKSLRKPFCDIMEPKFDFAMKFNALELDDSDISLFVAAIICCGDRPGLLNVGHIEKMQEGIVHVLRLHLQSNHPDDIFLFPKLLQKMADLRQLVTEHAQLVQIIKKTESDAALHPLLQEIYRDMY
Text: (§1) In Vitro PPAR Alpha and PPAR Gamma Activation Activity.
(§2) The PPAR gene transcription activation assays were based on transient transfection into human HEK293 cells of two plasmids encoding a chimeric test protein and a reporter protein respectively. The chimeric test protein was a fusion of the DNA binding domain (DBD) from the yeast GAL4 transcription factor to the ligand binding domain (LBD) of the human PPAR proteins. The PPAR LBD harbored in addition to the ligand binding pocket also the native activation domain (activating function 2=AF2) allowing the fusion protein to function as a PPAR ligand dependent transcription factor. The GAL4 DBD will force the fusion protein to bind only to Gal4 enhancers (of which none existed in HEK293 cells). The reporter plasmid contained a Gal4 enhancer driving the expression of the firefly luciferase protein. After transfection, HEK293 cells expressed the GAL4-DBD-PPAR-LBD fusion protein. The fusion protein will in turn bind to the Gal4 enhancer controlling the luciferase expression, and do nothing in the absence of ligand. Upon addition to the cells of a PPAR ligand, luciferase protein will be produced in amounts corresponding to the activation of the PPAR protein. The amount of luciferase protein is measured by light emission after addition of the appropriate substrate.
(§3) Cell culture and transfection: HEK293 cells were grown in DMEM+10% FCS. Cells were seeded in 96-well plates the day before transfection to give a confluency of 50-80% at transfection. A total of […] DNA containing 0.64 μg pM1α/γLBD, 0.1 μg pCMVβGal, 0.08 μg pGL2Gal4DBD and 0.02 μg p[…] was transfected per well using FuGene transfection reagent according to the manufacturers instructions (Roche). Cells were allowed to express protein for 48 h followed by addition of compound.
Plasmids: Human PPAR α and γ was obtained by PCR amplification using cDNA synthesized by reverse transcription of mRNA from liver and adipose tissue respectively. Amplified cDNAs were cloned into pCR2.1 and sequenced. The ligand binding domain (LBD) of each PPAR isoform was generated by PCR (PPARα: aa 167—C-terminus; PPARγ: aa 165—C-terminus) and fused to the DNA binding domain (DBD) of the yeast transcription factor GAL4 by subcloning fragments in frame into the vector pM1 generating the plasmids pM1αLBD and pM1γLBD. Ensuing fusions were verified by sequencing. The reporter was constructed by inserting an oligonucleotide encoding five repeats of the GAL4 recognition sequence (5×[…](AG)) into the vector pGL2 promotor (Promega) generating the plasmid pGL2(GAL4)5. pCMVβGal was purchased from Clontech and p[…] was purchased from Promega.
(§4) Luciferase assay: Medium including test compound was aspirated and 100 μl PBS incl. 1 mM Mg++ and Ca++ was added to each well. The luciferase assay was performed using the Lu-cLite kit according to the manufacturers instructions (Packard Instruments). Light emission was quantified by counting SPC mode on a Packard Instruments top-counter. To measure β-galactosidase activity 25 μl supernatant from each transfection lysate was transferred to a new microplate. β-galactosidase assays were performed in the microwell plates using a kit from Promega and read in a microplate reader. The β-galactosidase data were used to normalize (transfection efficiency, cell growth etc.) the luciferase data.
(§5) Compounds: All compounds were dissolved in DMSO and diluted 1:1000 upon addition to the cells. Compounds were tested in quadruple in five concentrations ranging form 0.01 to 30 μM. Cells were treated with compound for 24 h followed by luciferase assay. Each compound was tested in three separate experiments. EC50 values were calculated via non-linear regression using GraphPad PRISM 3.02 (GraphPad Software, San Diego, Calif.). The results were expressed as means.

[2] = target: T2, human PPAR γ (Homo sapiens, UniProt P37231); experiment: In vitro PPAR gamma transactivation assay (GAL4-DBD/PPAR-LBD, luciferase reporter, HEK293); format: cell-based; conditions: for In vitro activation PPAR γ % max: fold activation relative to maximum activation obtained with rosiglitazone (approx. […] fold corresponded to 100%); for EC50: transfected HEK293 cells, 24 h compound, five concentrations 0.01 to 30 μM, at least three experiments, means, read-out: In vitro activation PPAR γ EC50
T2 construct: PPARγ: aa 165—C-terminus); expressed in transfected cells; host or cells: HEK293
T2 sequence (P37231 238-503 limits assumed): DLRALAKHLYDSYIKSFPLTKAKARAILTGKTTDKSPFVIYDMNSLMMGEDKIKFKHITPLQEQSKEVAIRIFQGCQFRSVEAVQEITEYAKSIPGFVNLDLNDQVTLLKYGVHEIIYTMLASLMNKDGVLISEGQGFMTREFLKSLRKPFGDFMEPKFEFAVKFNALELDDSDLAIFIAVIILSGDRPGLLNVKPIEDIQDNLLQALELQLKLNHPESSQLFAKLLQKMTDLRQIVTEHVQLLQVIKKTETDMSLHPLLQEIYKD
Text: as §1, §2, §3
Plasmids: Human PPAR α and γ was obtained by PCR amplification using cDNA synthesized by reverse transcription of mRNA from liver and adipose tissue respectively. Amplified cDNAs were cloned into pCR2.1 and sequenced. The ligand binding domain (LBD) of each PPAR isoform was generated by PCR (PPARα: aa 167—C-terminus; PPARγ: aa 165—C-terminus) and fused to the DNA binding domain (DBD) of the yeast transcription factor GAL4 by subcloning fragments in frame into the vector pM1 generating the plasmids pM1αLBD and pM1γLBD. Ensuing fusions were verified by sequencing.
as §4, §5

Compound	melting point [°C]	In vitro activation PPAR α % max [1] [%]	EC50 [1] [nM]	In vitro activation PPAR γ % max [2] [%]	EC50 [2] [nM]
CCOC(=O)C(Cc1ccc(OC/C=C(\C)c2ccc(-c3ccccc3)cc2)cc1)OC(C)C (racemic) [Example 133, (E)-(S/R)-Ethyl 3-[4-(3-Biphenyl-4-yl-but-2-enyloxy)-phenyl]-2-isopropoxy-propionate]	79 to 81	–	–	–	–
C/C(=C\COc1ccc(CC(OC(C)C)C(=O)O)cc1)c1ccc(-c2ccccc2)cc1 (racemic) [Example 134, (E)-(S/R)-3-[4-(3-Biphenyl-4-yl-but-2-enyloxy)-phenyl]-2-isopropoxy-propionic acid]	125 to 127.5	122	2900	155	890
CCCCOC(Cc1ccc(OC/C=C(\C)c2ccc(-c3ccccc3)cc2)cc1)C(=O)OCC (racemic) [Example 135, (E)-(S/R)-Ethyl 3-[4-(3-Biphenyl-4-yl-but-2-enyloxy)-phenyl]-2-butoxy-propionate]	62 to 63.5	–	–	–	–
CCCCCCOC(Cc1ccc(OC/C=C(\C)c2ccc(-c3ccccc3)cc2)cc1)C(=O)O (racemic) [Example 138, (E)-(S/R)-3-[4-(3-Biphenyl-4-yl-but-2-enyloxy)-phenyl]-2-hexyloxy-propionic acid]	117 to 119	–	–	–	–
CCO[C@@H](Cc1ccc(OC/C=C(\C)c2ccc(-c3cc(Cl)ccc3OC)cc2)cc1)C(=O)O [Example 57, (E)-(S)-3-{4-[3-(5′-Chloro-2′-methoxy-biphenyl-4-yl)-but-2-enyloxy]-phenyl}-2-ethoxy-propionic acid]	–	178	380	110	700
CCOC(=O)[C@H](Cc1ccc(OC/C=C(\C)c2ccc(-c3ccc(C(C)C)cc3)cc2)cc1)OCC [Example 103, (E)-(S)-Ethyl 2-Ethoxy-3-{4-[3-(4′-isopropyl-biphenyl-4-yl)-but-2-enyloxy]-phenyl}-propionate]	70 to 73	–	–	–	–

Further lines, results first:

melting point [°C]	In vitro activation PPAR α % max [1] [%]	EC50 [1] [nM]	In vitro activation PPAR γ % max [2] [%]	EC50 [2] [nM]	Compound
115 to 117	–	–	–	–	C/C(=C\COc1ccc(CC(OCCCc2ccccc2)C(=O)O)cc1)c1ccc(-c2ccccc2)cc1 (racemic) [Example 140, (E)-(S/R)-3-[4-(3-Biphenyl-4-yl-but-2-enyloxy)-phenyl]-2-(3-phenyl-propoxy)-propionic acid]
–	212	3100	156	720	CCO[C@@H](Cc1ccc(OC/C=C(\C)c2ccc(-c3ccc(Br)cc3)cc2)cc1)C(=O)O [Example 4, (E)-(S)-3-{4-[3-(4′-Bromo-biphenyl-4-yl)-but-2-enyloxy]-phenyl}-2-ethoxy-propionic acid]
–	234	38	125	350	CCOC(=O)[C@H](Cc1ccc(OC/C=C(\C)c2ccc3c(c2)Cc2ccccc2-3)cc1)OCC [Example 9, (E)-(S)-2-Ethoxy-3-{4-[3-(9H-fluoren-2-yl)-but-2-enyloxy]-phenyl}-propionic acid ethyl ester]
–	185	100	99	110	CCOC(=O)[C@H](Cc1ccc(OC/C=C/c2cc3ccccc3o2)cc1)OCC [Example 27]
–	102	350	83	300	CCO[C@@H](Cc1ccc(OC/C=C(\C)c2ccc(-c3cc(Br)cc(Br)c3)cc2)cc1)C(=O)O [Example 124, (E)-(S)-3-{4-[3-(3′,5′-Dibromo-biphenyl-4-yl)-but-2-enyloxy]-phenyl}-2-ethoxy-propionic acid]
